Several values for one entry are separate records, joined by “and”; a condition that tells them apart may be missing. Identical values can stand only once. Like-named read-outs stand apart in the source and are kept apart here.
Key:
[1] = Hematological, enzymatic and chemical blood analyses and weight change, mice with KHJJ mammary carcinomas (Examples 4-7, Table 1); type: in vivo, BALB/c mice; conditions: NiTCP 160 or BPA 900 μg/gbw; 6-78 hr
Method: Female BALB/c mice (Taconic Farms, Germantown, N.Y.) (20-25 g) were implanted with either KHJJ or EMT-6 tumors. For KHJJ tumors, 1-3 mm^3 tumor fragments were implanted subcutaneously (s.c.) in the dorsal thorax of each mouse using an 18-gauge trocar. For EMT-6 tumors, 2.5×10^5 cells were implanted similarly using a 27-gauge needle. EMT-6 tumor cells were grown alternately in vivo and in vitro. Single-cell suspensions were prepared from mouse-grown tumors by trypsinization. These were grown in cell culture for several passages and then were frozen in 10% DMSO and stored in liquid nitrogen. Prior to implantation in mice, the cells were thawed and grown in tissue culture in Alpha-MEM with 10% FBS for several passages. […]
Levels of glucose [GLU], blood urea nitrogen [BUN], blood creatinine [BCR], alanine transaminase [ALT], aspartate transaminase [AST], alkaline phosphatase [ALP], total protein [TPR], albumin [ALB], and creatine phosphokinase [CPK] were determined in blood plasma using a Cobas Fara II microanalysis system. Blood platelets [PLT] and white blood cells [WBC] were counted using a Serono-Baker System 9000 automated hematology microanalyzer. […]

[2] = clinical BNCT (Coderre, et al., 1997); cited from earlier work
[3] = Experiment IV: boron concentrations in tissues, mice bearing EMT-6 tumors (Table 10); type: in vivo, BALB/c mice; conditions: mouse, ip, 837 mg/kg, BPA fructose complex, 6 hr, tumor model not restated
Method: (§1) Lipophilic porphyrins 1, 2, 4, 5, and 6 were injected as emulsions in either 3% or 9% CRM and either 6% or 18% PRG with saline as previously described in Example 2 above. Water soluble porphyrins 3 and 7 were dissolved in saline. BPA was solubilized as a fructose complex.
(§2) Female BALB/c mice (from Taconic Farms, Germantown, N.Y.) (20-25 g) were implanted with either KHJJ or EMT-6 tumors according to the procedure described in Example 3A above.
(§3) Under deep halothane anesthesia leading to euthanasia, right ventricular blood was collected in Microtainer (Becton-Dickinson, Rutherford, N.J.) tubes containing EDTA for hematological analyses and boron assays of whole blood and in Microtainer™ tubes containing lithium heparin for chemical analyses and enzyme assays of blood plasma. Tumor, brain, fat, muscle, and liver tissues were sampled at necropsy for boron analyses.
(§4) In Experiment IV, samples of BPA (836 μg/gbw), CuTCP (160 μg/gbw) and a combination of both were tested in mice with EMT-6 tumors. BPA was given in a single i.p. injection and mice were euthanized 6 hours later. CuTCP was given in 5 i.p. injections over 28 hours and mice were euthanized 90 hrs after the last injection. The group receiving both CuTCP and BPA were injected with CuTCP five times over 28 hours as was the CuTCP-only group and then with a single i.p. injection of BPA 6 hours prior to euthanasia which was 90 hours after the last injection of CuTCP.
(§5) Hematological, chemical and enzymatic tests were carried out as described in Example 3 above. Nonparametric statistical analyses were carried out using the Wilcoxon Two-Sample Test in accordance with procedures described in Slatkin, D.N., 1995. Boron analyses were conducted in accordance with the procedure described in Example 3 above. Fat and liver tissues were assayed for ^10 B by prompt-gamma spectroscopy as described in Fairchild, et al., 1986. These measurements were multiplied by 5.0 to give total boron concentrations due to the use of boron of natural isotope abundance in the syntheses of all boronated porphyrins reported.

EMT-6 tumors = assay: as above; type: in vivo, BALB/c mice; conditions: 90 hrs after last of 5 ip CuTCP (160 μg/gbw); BPA (837 μg/gbw) 1 ip 6 hr before euthanasia; 836 mg/kg
Method: as §1, §2, §3, §4, §5

[4] = Boron biodistribution, mice with KHJJ mammary carcinomas (Examples 4-7, Table 1); type: in vivo, BALB/c mice; conditions: mouse, ip, 900 mg/kg, 6 hr after last i.p. injection, BPA 900 or NiTCP 160 μg/gbw, median (range)
Method: (§6) Female BALB/c mice (Taconic Farms, Germantown, N.Y.) (20-25 g) were implanted with either KHJJ or EMT-6 tumors. For KHJJ tumors, 1-3 mm^3 tumor fragments were implanted subcutaneously (s.c.) in the dorsal thorax of each mouse using an 18-gauge trocar. For EMT-6 tumors, 2.5×10^5 cells were implanted similarly using a 27-gauge needle. EMT-6 tumor cells were grown alternately in vivo and in vitro. Single-cell suspensions were prepared from mouse-grown tumors by trypsinization. These were grown in cell culture for several passages and then were frozen in 10% DMSO and stored in liquid nitrogen. Prior to implantation in mice, the cells were thawed and grown in tissue culture in Alpha-MEM with 10% FBS for several passages.
as §3
(§7) Direct current plasma-atomic emission spectroscopy [DCP-AES] (ARL/Fisons Model SS-7) was used (detection limit: 0.1 μg/ml). Samples (50-130 mg) were digested at 60° C. with sulfuric acid:nitric acid (1:1). Triton X-100 and water were added to give final concentrations of ≈50 mg tissue/ml, 15% total acid v/v and 5% Triton X-100 v/v. Fat and liver tissues were assayed for ^10 B by prompt-gamma spectroscopy (Fairchild, et al., 1986). The prompt-gamma measurements were multiplied by 5.0 to give the total boron concentrations due to the use of boron of natural isotope abundance in the syntheses of all boronated porphyrins reported.
(§8) Seven mice having KHJJ mammary carcinomas were given one intraperitoneal (i.p.) injection of 900 μg/g body weight of the boron compound presently used for BNCT of malignant brain tumors, p-boronophenylalanine (BPA) complexed with fructose. BPA was prepared in accordance with procedure described in Coderre, et al., 1996 incorporated herein by reference in its entirety as if set forth in full.
(§9) Mice were euthanized during the collection of blood while under Halothane anesthesia. At necropsy, the apparent states of structural integrity, consistency, color or abnormality, if any, of tissues were observed and tumor, brain and liver tissues were collected from each mouse for boron analysis.
(§10) Eight mice having KHJJ mammary carcinomas were injected with the NiTCP solution in the amount of 160 μg NiTCP/g body weight (36 μgB/g body weight) in six i.p. injections over 20 hours.
(§11) Six hours after the mice were last injected with NiTCP, mice were euthanized during the collection of blood while under Halothane anesthesia and right ventricular blood was collected from each mouse for hematological and chemical analysis without pooling the samples. At necropsy, the apparent states of structural integrity, consistency, color, or abnormality, if any, of tissues were observed and tumor, brain and liver tissues were collected from each mouse for boron analysis without pooling the samples.
(§12) Seven mice having KHJJ mammary carcinomas were injected with the NiTCP solution in the amount of 160 μg NiTCP/g body weight (36 μgB/g body weight) in six i.p. injections over 20 hours.
as §11, with “Sixteen hours” for “Six hours”, “were” for “were last”, “boron analysis. […]” for “boron analysis without pooling the samples.”

KHJJ mammary carcinomas = assay: as above; type: in vivo, BALB/c mice; conditions: 6 hr after last i.p. injection; BPA 900 or NiTCP 160 μg/gbw; median (range); 900 mg/kg, 360 min
Method: as §6, §3, §7, §8, §9, §10, §11, §12
as §11, with “Sixteen hours” for “Six hours”, “were” for “were last”, “boron analysis. […]” for “boron analysis without pooling the samples.”

9L gliosarcomas [5] = test system: 9L gliosarcomas; parameters: species or system Fischer 344 rats; conditions: rat, in vivo, iv
Method: 2C. Preparation of CuTCP and CuTCP-H Solution for Rat Studies
(§13) CuTCP-H as prepared in Example 1D was formulated with 9% CRM and 18% PrG to form a solution to which saline was added dropwise to yield 3.34 mg/ml of CuTCP and […] CuTCP-H, respectively. The resulting total doses were 215 mg/kg body weight for CuTCP and 149 mg/kg body weight for CuTCP-H. These solutions were then utilized for toxicity and biodistribution experiments in rats.
as §7
Male Fischer 344 rats each bearing 4 subcutaneous 9L gliosarcomas were given 210-219 mg CuTCP/kg body wt by 48-h iv infusion. Tumor and blood were sampled at 0, 1, 2, and 3 days after the end of infusion for boron analyses and blood for toxicity. Rats were euthanized on day 3 and other organs were analyzed for boron uptake.

[6] = Toxicity testing of NiTCP, MnTCP and CuTCP in normal mice (Example 13, Table 3); type: in vivo, BALB/c mice; conditions: 4 days after last of 6 ip injections
Method: Levels of glucose [GLU], blood urea nitrogen [BUN], blood creatinine [BCR], alanine transaminase [ALT], aspartate transaminase [AST], alkaline phosphatase [ALP], total protein [TPR], albumin [ALB], and creatine phosphokinase [CPK] were determined in blood plasma using a Cobas Fara II microanalysis system. Blood platelets [PLT] and white blood cells [WBC] were counted using a Serono-Baker System 9000 automated hematology microanalyzer.
Compounds prepared as in Example 1B and 1C were formulated with 6% Cremophor EL [CRM] and 12% propylene glycol [PrG] in saline. Total doses of MnTCP and CuTCP of 174 and 223 μg/g body weight, respectively, were administered to normal BALB/c mice. Each mouse was given 6 intraperitoneal [ip] injections over a period of 32 hours. Mice were euthanized 4 days after the last injection and chemical, enzymatic and hematological analyses of their blood were compared to those of similar mice given NiTCP at a dose of 252 μg/g body weight.

[7] = Overall ranking of boronated porphyrins for BNCT guided by biodistribution and toxicity tests in mice (Table 11)
Method: The higher the numerical value, the better the performance of that porphyrin for that property. […] Although VCDP was able to deliver therapeutic amounts of boron to tumor, such side effects such as thrombocytopenia, which was induced within 3 hours after injections, weight loss, and the altered hepatic enzymes were serious enough to rank VCDP considerably behind the TCP's and the TCP-H's (Miura et al., 1992). In addition, the 80-hour drug administration period and the 90-hour blood clearance period are of great inconvenience. Moreover, this 4-day difference between the VCDP and the TCP (or TCP-H) dose and clearance schedules would translate into a 4-day greater delay between initiation of drug administration and neutron irradiation which would allow greater tumor growth to occur.
[…]
biodistribution and toxicity tests in mice. An asterisk indicates

9L gliosarcomas [8] = test system: 9L gliosarcomas; parameters: species or system Fischer 344 rats; conditions: rat, in vivo
Method: as §13, §7
CuTCP-H (146-152 mg/kg body weight) was given to four Fischer 344 rats each bearing four subcutaneous 9L gliosarcomas. A solution of 3.34 mg CuTCP-H/mL, in 9% CRM and 18% PrG, was given to rats by 48-hour i.v. infusion in a total volume of 9.6 mL.

N[C@@H](Cc1ccc(B(O)O)cc1)C(=O)O [BPA, p-boronophenylalanine]
toxicity, in words [1]: undetectable, minimal, or negligible in every respect
brain and blood boron concentrations relative to tumor [2]: approximately one-third that found in tumor
chemical toxicity, in words [2]: not eliciting any chemical toxicity
concentration at 6 h ([3]; blood, read-out: Blood boron): 2000 ng/g
concentration at 6 h ([3]; brain, read-out: Brain boron, median): 8000 ng/g
Boron concentration, Blood (EMT-6 tumors): 2.0 (1.2-3.6) μg B/g
Boron concentration, Brain (EMT-6 tumors): 8.1 (5.9-9.6) μg B/g
Boron concentration, Fat (EMT-6 tumors): 0.4 (0-1.8) μg B/g
Boron concentration, Liver (EMT-6 tumors): 2.1 (0.1-3.1) μg B/g
Boron concentration, Muscle (EMT-6 tumors): 3.8 (2.1-7.9) μg B/g
Boron concentration, Tumor (EMT-6 tumors): 5.4 (3.5-23) μg B/g and 5.4 μg B/g
concentration at 6 h ([4]; blood, read-out: Boron Concentration: Blood): 4600 ng/g
concentration at 6 h ([4]; brain, read-out: Boron Concentration: Brain): 7200 ng/g
concentration at 6 h ([4]; tumor, read-out: Boron Concentration: Tumor): 13800 ng/g
Boron Concentration: Tumor (KHJJ mammary carcinomas): ≈ 14 μg B/g

Copper Tetracarboranylphenylporphyrin [CuTCP]
time to rapid and almost total clearance of boron in blood (9L gliosarcomas [5]): ≤ 2 days
Boron concentration in tumor (9L gliosarcomas [5]; 215 mg/kg, 0 h): 54-68 μg B/g
Boron concentration in tumor (9L gliosarcomas [5]; 215 mg/kg, 48 h): 38-69 μg B/g
boron in cerebellum (9L gliosarcomas [5]; 215 mg/kg, 48 h): 1.5 μg B/g
boron in cerebrum (9L gliosarcomas [5]; 215 mg/kg, 48 h): 2.5 μg B/g
median boron in blood (9L gliosarcomas [5]; 215 mg/kg, 48 h): 6 μg B/g
median boron in tumor (9L gliosarcomas [5]; 215 mg/kg, 48 h): 55 μg B/g
average boron concentration, cerebellum (9L gliosarcomas [5]; 215 mg/kg, 72 h): 1-2 μg B/g
average boron concentration, cerebrum (9L gliosarcomas [5]; 215 mg/kg, 72 h): 1-2 μg B/g
toxicity / thrombocytopenia, in words [6]: little if any difference in toxicity
Drug tolerance/deliverable boron (ranking) [7]: 4
Lipophilicity (ranking) [7]: 2
Tumor uptake (normalized) (ranking) [7]: 3
Tumor:Blood (ranking) [7]: 3

Copper Tetracarboranylporphyrin Hydride [CuTCP-H]
tumor:blood ratio (boron) (9L gliosarcomas [8]; 2880 min): 16:1
Boron concentration, Blood (9L gliosarcomas [8]; iv, 149 mg/kg, 0 h): 183 (160-205) μg B/g
Boron concentration, Tumor (9L gliosarcomas [8]; iv, 149 mg/kg, 0 h): 45 (23-51) μg B/g
Boron concentration, Blood (9L gliosarcomas [8]; iv, 149 mg/kg, 24 h): 62 (56-65) μg B/g
Boron concentration, Tumor (9L gliosarcomas [8]; iv, 149 mg/kg, 24 h): 46 (35-52) μg B/g
Boron concentration, Blood (9L gliosarcomas [8]; iv, 149 mg/kg, 120 h): 0.6 (0.3-0.7) μg B/g
Boron concentration, Cerebellum (9L gliosarcomas [8]; iv, 149 mg/kg, 120 h): 2.8 (2.1-6.2) μg B/g
Boron concentration, Cerebrum (9L gliosarcomas [8]; iv, 149 mg/kg, 120 h): 4.9 (2.2-6.9) μg B/g
Boron concentration, Liver (9L gliosarcomas [8]; iv, 149 mg/kg, 120 h): 345 (336-408) μg B/g
Boron concentration, Tumor (9L gliosarcomas [8]; iv, 149 mg/kg, 120 h): 31 (23-55) μg B/g

Manganese Tetracarboranylphenylporphyrin [MnTCP]
toxicity / thrombocytopenia, in words [6]: little if any difference in toxicity
